Results taken from ChEMBL document CHEMBL2346650, “Cytotoxic scalarane sesterterpenes from a Korean marine sponge Psammocinia sp” (Bioorg Med Chem Lett, 2013).

Assays:
CV-1 = assay: Cytotoxicity against african green monkey CV1 cells after 72 hrs by MTT assay; type: cell-based; conditions: Chlorocebus aethiops, CV-1, 72 h
[1] = Cytotoxicity against human MiaPaCa cells after 72 hrs by MTT assay; type: functional, cell-based; conditions: MIA PaCa-2, 72 h
PANC-1 = assay: Cytotoxicity against human PANC1 cells after 72 hrs by MTT assay; type: functional, cell-based; conditions: PANC-1, 72 h
ACHN = assay: Cytotoxicity against human ACHN cells after 72 hrs by MTT assay; type: functional, cell-based
A498 = assay: Cytotoxicity against human A498 cells after 72 hrs by MTT assay; type: functional, cell-based; conditions: A498, 72 h

CC1(C)CCC[C@@]2(CO)[C@H]1CC[C@@]1(C)[C@@H]3CC=C(C=O)[C@H](C=O)[C@@]3(C)CC[C@@H]12 [12-DEACETOXY-23-HYDROXYSCALARADIAL]
IC50 (CV-1): > 50 µM | IC50 [1]: 31.1 µM | IC50 (PANC-1): 34.3 µM | IC50 (ACHN): > 50 µM | IC50 (A498): > 50 µM

CO[C@H]1C[C@@H]2CC[C@@H](C)[C@@](O)(O2)C(=O)C(=O)N2CCCC[C@H]2C(=O)O[C@H]([C@H](C)C[C@@H]2CC[C@@H](OC(=O)C(C)(CO)CO)[C@H](OC)C2)CC(=O)[C@H](C)/C=C(\C)[C@@H](O)[C@@H](OC)C(=O)[C@H](C)C[C@H](C)/C=C/C=C/C=C/1C [TEMSIROLIMUS]
IC50 (A498): 34.3 µM

CC(=O)OC[C@]12CCCC(C)(C)[C@@H]1CC[C@@]1(C)[C@@H]3CC=C4C(=O)O[C@@H](O)[C@@H]4[C@@]3(C)CC[C@@H]12
IC50 (CV-1): 2.1 µM | IC50 [1]: 1.2 µM | IC50 (PANC-1): 1.3 µM | IC50 (ACHN): 1.3 µM | IC50 (A498): 1.3 µM

CC(=O)OC[C@]12CCCC(C)(C)[C@@H]1CC[C@]1(C)[C@@H]2C[C@@H](OC(C)=O)[C@]2(C)c3cocc3CC[C@@H]12
IC50 (CV-1): > 50 µM | IC50 [1]: 31.1 µM | IC50 (PANC-1): 48 µM | IC50 (ACHN): > 50 µM | IC50 (A498): > 50 µM

CC(=O)O[C@@H]1OC=C2[C@@H](OC(C)=O)C[C@@H]3[C@](C)(CC[C@H]4[C@@]3(C)CC[C@H]3C(C)(C)CCC[C@@]34CO)[C@H]21
IC50 (CV-1): 0.8 µM | IC50 [1]: 0.7 µM | IC50 (PANC-1): 0.4 µM | IC50 (ACHN): 0.4 µM | IC50 (A498): 0.7 µM

CC(=O)OC[C@]12CCCC(C)(C)[C@@H]1CC[C@@]1(C)[C@@H]3C[C@H](OC(C)=O)C4=CO[C@@H](OC(C)=O)[C@@H]4[C@@]3(C)CC[C@@H]12
IC50 (CV-1): 3 µM | IC50 [1]: 2.8 µM | IC50 (PANC-1): 1.6 µM | IC50 (ACHN): 5.8 µM | IC50 (A498): 5.7 µM

CCN(CC)CCNC(=O)c1c(C)[nH]c(/C=C2\C(=O)Nc3ccc(F)cc32)c1C [SUNITINIB]
IC50 (ACHN): 5.7 µM | IC50 (A498): 4.3 µM

CC1(C)CCC[C@@]2(CO)[C@H]1CC[C@]1(C)[C@@H]2CC[C@]2(C)C3=C(C(=O)O[C@H]3O)C(O)C[C@@H]12 (mixture of isomers)
IC50 (CV-1): > 50 µM | IC50 [1]: > 50 µM | IC50 (PANC-1): > 50 µM | IC50 (ACHN): > 50 µM | IC50 (A498): 40.7 µM

Nc1ccn([C@@H]2O[C@H](CO)[C@@H](O)C2(F)F)c(=O)n1 [GEMCITABINE]
IC50 (CV-1): 21.9 µM | IC50 [1]: 17.1 µM | IC50 (PANC-1): > 50 µM

CC1(C)CCC[C@]2(C)[C@H]3CC[C@@]4(C)[C@@H](CC=C(C=O)[C@@H]4C=O)[C@]3(C)CC[C@@H]12 [12-DEACETOXYSCALARADIAL]
IC50 (CV-1): 45 µM | IC50 [1]: 45.9 µM | IC50 (PANC-1): 38.8 µM | IC50 (ACHN): > 50 µM | IC50 (A498): > 50 µM
